Laboratory results reported in patent publication US7501529B2, “7-Ethynyl-2,4,9-trithiaadamantane and related methods” (The University of Akron, priority 2003, dated 2009).

Legend:
[1] = comparison value, source not stated; cited from earlier work
[2] = Solubility in water / D2O, observed during 1H NMR experiments; assay type: physicochemical
Text: The formation of inclusion complex between 7-hydroxycarbonyl-2,4,9-trithiaadamantane and β-cyclodextrin was evident in the 1H NMR experiments. […] Thus, a 1:1 mixture of 7-hydroxycarbonyl-2,4,9-trithiaadamantane and β-cyclodextrin (3.5×10^−3 M) formed a clear solution in D2O in an NMR sampling tube. At the low concentration limit, this change in the solubility of 7-hydroxycarbonyl-2,4,9-trithiaadamantane in water is attributed to the molecular interactions between water insoluble 7-hydroxycarbonyl-2,4,9-trithiaadamantane and water soluble β-cyclodextrin. […] Similar phenomena in cyclodextrin inclusion complexes have been observed previously. Without being bound by theory, these spectral changes were attributed at least in part to the dynamic exchanges between uncomplexed species and the intimately included 7-hydroxycarbonyl-2,4,9-trithiaadamantane in β-cyclodextrin in aqueous solutions. […] The simultaneous observation of changes in the chemical shift of the β-cyclodextrin at H-3 and H-5 also indicated the binding interaction was dominated by the inclusion of the 7-hydroxycarbonyl-2,4,9-trithiaadamantane guest inside the host β-cyclodextrin cavity.

[3] = 1H NMR titration, stability constant of the inclusion complex (Benesi-Hildebrand); assay type: physicochemical
Procedure: The equilibrium constant of the formation of the inclusion complex provides a relative measurement of the thermodynamic driving force for the guest and host binding. NMR Titration was performed by measuring chemical shift changes as a function of the relative concentrations of the host and guest. The changes of the chemical shifts were measured for the H-3 and H-5 peaks of the host and Ha and Hb of the guest in the following scheme, which represents the inclusion complex formation of 7-hydroxycarbonyl-2,4,9-trithiaadamantane with β-cyclodextrin:
The data in Table 1 were also used to calculate the stability constant of the 7-hydroxycarbonyl-2,4,9-trithiaadamantane/β-cyclodextrin inclusion complex by applying the Benesi-Hildebrand equation having the formula: 1/Δδi=(1/KΔδc)(1/Hi)+1/Δδc where the Δδi represents the observed chemical shift difference between the free guest and complexed guest, Hi represents the total host concentration, and Δδc represents the guest chemical shift difference between a completely complexed state and completely free state. In order to use Benesi-Hildebrand equation, the host molecule must be present in excess. The stability constant was determined from simultaneous fits of three chemical shift data sets. The stability constant of 7-hydroxycarbonyl-2,4,9-trithiaadamantane/β-cyclodextrin in water was thus measured to be 1550 M^−1 (logK=3.19). […]

SMILES	stability constant K of the β-cyclodextrin inclusion complex (comparison) [1] [M⁻¹]	solubility in water ([2]; water, without β-cyclodextrin)	change of solubility in water with β-cyclodextrin present ([2]; β-cyclodextrin present, 1:1 mixture (3.5×10^−3 M) formed a clear solution in D2O)	association (stability) constant of the inclusion complex with β-cyclodextrin ([3]; 1:1 complex, in water (D2O), room temperature, 1H NMR titration) [M⁻¹]	logK of the stability constant of the β-cyclodextrin inclusion complex ([3]; in water)
O=C(O)C12CC3CC(CC(C3)C1)C2 [1-adamantane carboxylic acid]	188	–	–	–	–
O=C(O)C12CC3SC(C1)SC(C2)S3 [7-hydroxycarbonyl-2,4,9-trithiaadamantane]	–	dissolves only slightly	increased visibly	1550	3.19
